Results on eleven compounds are retold here after US4342772A, “β-Lactam compounds, antibacterial compositions thereof and method of use” (priority 1979, dated 1982).

“And” between values parts separate entries of the source, which are not always exact repeats. Equal values may be shown once. Where a name gives a salt, the structure may show the parent alone. Read-outs that look alike come from different tables or passages of the source.

The subject of data set [1] is gram-positive and gram-negative organisms. The conditions noted are these: cited from earlier work.
Data set [2] has as its system β-lactamase producing bacteria. The settings on record: cited from earlier work.
The next data set relates to β-lactamases. The settings on record: cited from earlier work.
The nature of data set [3]: Absorption from the gastro-intestinal tract and in vivo hydrolysis. Set-up: species or system animals and human volunteers. The conditions noted are these: oral, in words.
The conditions of data set [4]: cited from earlier work.
For data set [5] the following is noted: in words, medium not stated; cited from earlier work.
For data set [6] the following is noted: human, in vivo, po. The procedure:
Serum concentrations and urinary excretion of ampicillin in fasting
following oral administration of
A. 125 mg of pivampicillin free base in tablets.
B. 170 mg of VD-1827^x hydrochloride (corresponding to 125 mg of
free base) in aqueous solution.
Serum concentrations (μg/ml) (% of dose)

A short description of data set [7]: Stability of crystalline form. The data set is classed as physicochemical. The settings on record: crystalline free base; in words.
Data set [8] can be described thus: Urinary excretion in 0 to 6 hours of penicillanic acid 1,1-dioxide in fasting volunteers following oral administration (Table II). The conditions noted are these: oral 73 mg potassium penicillanate 1,1-dioxide, aqueous solution, individual subjects in order GK, MK, FJ, MM, LA, 360 min.

In the case of `CC1(C)[C@H](C(=O)O)N2C(=O)[C@@H](NC(=O)c3nc4ccccc4nc3C(=O)O)[C@H]2S1(=O)=O` [quinacillin sulphone], the “Antibacterial activity against most gram-positive and gram-negative organisms” value (shortened to “Antibacterial activity”) in data set [1] is “only weak antibacterial activity”. The “Synergy against β-lactamase producing bacteria” value (from here on “Synergy”) in data set [2] is recorded as “act synergistically”. In addition, the “Inhibition of a wide range of β-lactamases” value (from here on “Inhibition”) with β-lactamases is on record as “powerful inhibitors”.

For `CC1(C)[C@H](C(=O)O)N2C(=O)C[C@H]2S1(=O)=O` [penicillanic acid 1,1-dioxide], the “Antibacterial activity” value in [1] was “only weak antibacterial activity”. In addition, the “Synergy” value in data set [2] was “act synergistically”. The “Inhibition” value in the data set on β-lactamases was “powerful inhibitors”. In addition, the “Absorption from the gastro-intestinal tract” value in data set [3] was “absorbed poorly or irregularly”.

As for `CC(C)(C)C(=O)OCOC(=O)[C@@H]1N2C(=O)[C@@H](NC(=O)[C@H](N)c3ccccc3)[C@H]2SC1(C)C` [pivampicillin], the “Absorption from the gastro-intestinal tract (general statement)” value (from here on “Absorption … (general statement)”) in [4] (oral, in words, no data shown) is “absorbed very rapidly”.

In the case of `CC(C)(C)C(=O)OCOC(=O)[C@@H]1N2C(=O)C[C@H]2S(=O)(=O)C1(C)C` [pivaloyloxymethyl ester of the β-lactamase inhibitor penicillanic acid 1,1-dioxide], in data set [4] (oral, in words, no data shown), the “Absorption … (general statement)” value is recorded as “absorbed much more slowly”. Besides, in data set [5], the “Solubility (general statement)” value is “sparingly soluble”.

Regarding `COc1cccc(OC)c1C(=O)N[C@@H]1C(=O)N2[C@@H](C(=O)O)C(C)(C)S(=O)(=O)[C@H]12` [methicillin sulphone, 1,1-dioxo-6β-(2,6-dimethoxybenzamido)penicillanic acid], in [1], the “Antibacterial activity” value is listed as “only weak antibacterial activity”. Moreover, the “Synergy” value in data set [2] is “act synergistically”. Also, in the data set with β-lactamases, the “Inhibition” value is given as “powerful inhibitors”.

Regarding `CC1(C)S[C@@H]2[C@H](NC(=O)[C@H](N)c3ccccc3)C(=O)N2[C@H]1C(=O)OCOC(=O)[C@@H]1N2C(=O)C[C@H]2S(=O)(=O)C1(C)C` [VD-1827 hydrochloride, 1,1-Dioxopenicillanoyloxymethyl 6-(D-α-amino-α-phenylacetamido)penicillanate hydrochloride], the “Urinary recovery of ampicillin compared with pivampicillin” value in data set [6] was “comparable to that following administration of pivampicillin”. The “Absorption from the gastro-intestinal tract” value in [3] (HCl, hydrochloride) is given as “efficient oral absorption”.

Regarding `CC1(C)S[C@@H]2C(NC(=O)[C@H](N)c3ccccc3)C(=O)N2[C@H]1C(=O)O` (stereo partly drawn) [ampicillin, 6-(D-α-amino-α-phenylacetamido)penicillanic acid], the “Absorption … (general statement)” value in data set [4] (oral, in words, no data shown) is listed as “incompletely absorbed”.

Take `CC1(C)S[C@@H]2[C@H](NC(=O)[C@H](N)c3ccccc3)C(=O)N2[C@H]1C(=O)OCOC(=O)[C@@H]1N2C(=O)C[C@H]2S(=O)(=O)C1(C)C` [VD-1827, free base, 1,1-Dioxopenicillanoyloxymethyl 6-(D-α-amino-α-phenylacetamido)penicillanate]: the Stability result in data set [7] was “stable”. In data set [3] (listed as free base VD 1827), the “Absorption from the gastro-intestinal tract” value is on record as “readily absorbable”.

For the compound `CC1(C)S[C@@H]2[C@H](NC(=O)C(C(=O)O)c3ccccc3)C(=O)N2[C@H]1C(=O)O` (some centres unmarked) [carbenicillin], the “Absorption … (general statement)” value in [4] (in vivo, po) was “incompletely absorbed”.

For `CC1(C)[C@H](C(=O)O)N2C(=O)[C@H](Cl)[C@H]2S1(=O)=O` [6α-chloropenicillanic acid 1,1-dioxide], the “Antibacterial activity” value in data set [1] is recorded as “only weak antibacterial activity”. In addition, the “Synergy” value in data set [2] is on record as “act synergistically”. Further, the “Inhibition” value in the data set on β-lactamases is “powerful inhibitors”.

Turning to `CC1(C)[C@H](C(=O)[O-])N2C(=O)C[C@H]2S1(=O)=O.[K+]` [potassium penicillanate 1,1-dioxide], the “Urinary excretion of penicillanic acid 1,1-dioxide” value in [8] is 2.5 % of dose and 4.0 % of dose and 9.5 % of dose and 5.5 % of dose and 4.5 % of dose.
